The values that follow come from PMC4662070 (Nature communications, 2015).

The test deals with FABP5 (Homo sapiens, UniProt Q01469). The test can be described thus: fluorescence titration. It is filed as binding.
Chain of FABP5 (Q01469 2-135): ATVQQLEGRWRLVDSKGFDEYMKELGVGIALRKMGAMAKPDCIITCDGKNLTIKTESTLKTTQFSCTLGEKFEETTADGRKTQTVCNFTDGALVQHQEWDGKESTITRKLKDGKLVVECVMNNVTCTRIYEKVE

As for `O=S(=O)(O)c1cccc2cccc(Nc3ccccc3)c12` [ANS, 1-anilinonaphthalene-8-sulfonic acid], the equilibrium dissociation constant (Kd) – broadly, the constant that tells how readily two partners part at equilibrium – came out at 70 ± 6.4 nM.
